Reference: patent publication US11071731B2, “Allosteric modulators of the mu opioid receptor” (Chiromics, LLC, priority 2017, dated 2021)

Key:
mu opioid receptor (MOR) [1] = biological target: T1, mu opioid receptor (MOR) (Homo sapiens, UniProt P35372); assay: Hit Hunter cAMP signaling assay (adenylyl cyclase inhibition), PAM mode with EC20 endomorphin-1; format: cell-based; conditions: for cAMP Max. Resp.: maximal response for adenylyl cyclase inhibition
mu opioid receptor (MOR) [2] = biological target: T1, mu opioid receptor (MOR); assay: PathHunter β-arrestin recruitment assay, PAM mode with EC20 endomorphin-1; format: cell-based; conditions: for β-arr Max. Resp.: maximal response for β-arrestin recruitment
Method in brief: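 Enzyme fragment complementation read-out: β-gal ED fragment fused to receptor, EA fused to β-arrestin, recruitment restoring β-gal activity detected by chemiluminescence. EC50 and percent maximal response derived for each compound.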

[3] = adenylyl cyclase inhibition, read-out: cAMP EC50
[4] = β-arrestin recruitment, read-out: β-arr. EC50
[5] = cAMP EC50, adenylyl cyclase inhibition

T1 sequence (P35372 whole entry): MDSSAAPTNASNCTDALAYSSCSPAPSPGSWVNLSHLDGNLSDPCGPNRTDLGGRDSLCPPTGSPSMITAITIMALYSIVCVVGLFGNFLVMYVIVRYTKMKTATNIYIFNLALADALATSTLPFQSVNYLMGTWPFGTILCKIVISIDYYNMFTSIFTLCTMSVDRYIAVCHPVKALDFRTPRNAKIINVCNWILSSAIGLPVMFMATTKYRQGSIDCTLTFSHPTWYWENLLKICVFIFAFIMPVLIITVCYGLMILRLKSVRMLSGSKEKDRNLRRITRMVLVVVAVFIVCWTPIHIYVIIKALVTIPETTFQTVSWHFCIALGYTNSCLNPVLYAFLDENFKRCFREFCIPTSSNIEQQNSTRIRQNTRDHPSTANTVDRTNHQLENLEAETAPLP

| Structure (SMILES) | EC50 (mu opioid receptor (MOR) [1]; [3]) | cAMP Max. Resp. (mu opioid receptor (MOR) [1]) | β-arr Max. Resp. (mu opioid receptor (MOR) [2]) | EC50 (mu opioid receptor (MOR) [2]; [4]) | EC50 (mu opioid receptor (MOR) [1]; [5]) | EC50 (mu opioid receptor (MOR) [1]) | EC50 (mu opioid receptor (MOR) [2]; β-arr. EC50, β-arrestin recruitment) |
| --- | --- | --- | --- | --- | --- | --- | --- |
| CCC1CCCN(c2nc(Cl)ncc2F)C1c1ccc(OC)c(Br)c1 (stereo not shown) [compound 248] | > 2.1 µM | E (E represents a maximal response of 40-60%) | F (F represents a maximal response of > 60%) | > 2.1 µM | – | – | – |
| COc1ccc(C2C(C)CCCN2c2nc(Cl)ncc2F)cc1Br (stereo not shown) [compound 249] | > 2.1 µM | E (E represents a maximal response of 40-60%) | F (F represents a maximal response of > 60%) | > 2.1 µM | – | – | – |
| CCC1CCCN(c2nc(Cl)ncc2F)C1c1ccc(OC)c(Br)c1 (stereo not shown) [compound 251] | > 2.1 µM | D (D represents a maximal response of < 40%) | F (F represents a maximal response of > 60%) | > 2.1 µM | – | – | – |
| Fc1cc(C2CCCCCN2c2nc(Cl)ncc2F)cc(C(F)(F)F)c1 (stereo not shown) [compound 252] | > 2.1 µM | E (E represents a maximal response of 40-60%) | F (F represents a maximal response of > 60%) | > 2.1 µM | – | – | – |
| Fc1cnc(Cl)nc1N1CCCCCC1c1cccc(C(F)(F)F)n1 (stereo not shown) [compound 253] | > 2.1 µM | E (E represents a maximal response of 40-60%) | F (F represents a maximal response of > 60%) | > 2.1 µM | – | – | – |
| CCN(CC)c1ncc(F)c(N2CCCCC2c2cccc(C(F)(F)F)c2)n1 (stereo not shown) [compound 254] | – | E (E represents a maximal response of 40-60%) | D (D represents a maximal response of < 40%) | > 2.1 µM | > 2.1 µM | – | – |
| Fc1cnc(N2CCOCC2)nc1N1CCCCC1c1cccc(C(F)(F)F)c1 (stereo not shown) [compound 255] | – | F (F represents a maximal response of > 60%) | D (D represents a maximal response of < 40%) | > 2.1 µM | > 2.1 µM | – | – |
| OC1CN(c2ncc(F)c(N3CCCCC3c3cccc(C(F)(F)F)c3)n2)C1 (stereo not shown) [compound 256] | – | D (D represents a maximal response of < 40%) | D (D represents a maximal response of < 40%) | > 2.1 µM | > 2.1 µM | – | – |
| FC(F)(F)c1cccc(C2CCCCN2c2ccnc(Cl)n2)c1 (stereo not shown) [compound 257] | – | D (D represents a maximal response of < 40%) | F (F represents a maximal response of > 60%) | > 2.1 µM | > 2.1 µM | – | – |
| FC(F)(F)c1cccc(C2CCCCN2c2nccc(Cl)n2)c1 (stereo not shown) [compound 258] | – | F (F represents a maximal response of > 60%) | E (E represents a maximal response of 40-60%) | > 2.1 µM | > 2.1 µM | – | – |
| Fc1cccc(C2CCCCN2c2ccnc(Cl)n2)n1 (stereo not shown) [compound 259] | – | D (D represents a maximal response of < 40%) | D (D represents a maximal response of < 40%) | > 2.1 µM | > 2.1 µM | – | – |
| Fc1cccc(C2CCCCN2c2nccc(Cl)n2)n1 (stereo not shown) [compound 260] | – | D (D represents a maximal response of < 40%) | D (D represents a maximal response of < 40%) | > 2.1 µM | > 2.1 µM | – | – |
| Fc1cnc(Cl)cc1N1CCCCC1c1cccc(C(F)(F)F)c1 (stereo not shown) [compound 261] | – | D (D represents a maximal response of < 40%) | F (F represents a maximal response of > 60%) | 0.7 to 2.1 µM | > 2.1 µM | – | – |
| Fc1cccc(C2CCCCN2c2cc(Cl)ncc2F)n1 (stereo not shown) [compound 262] | – | D (D represents a maximal response of < 40%) | E (E represents a maximal response of 40-60%) | > 2.1 µM | > 2.1 µM | – | – |
| Fc1ccc(Cl)nc1N1CCCCC1c1cccc(C(F)(F)F)c1 (stereo not shown) [compound 263] | – | D (D represents a maximal response of < 40%) | F (F represents a maximal response of > 60%) | 0.7 to 2.1 µM | 0.7 to 2.1 µM | – | – |
| Fc1cccc(C2CCCCN2c2nc(Cl)ccc2F)n1 (stereo not shown) [compound 264] | – | F (F represents a maximal response of > 60%) | E (E represents a maximal response of 40-60%) | > 2.1 µM | 0.7 to 2.1 µM | – | – |
| Cc1cnc(Cl)nc1N1CCCCC1c1cccc(C(F)(F)F)c1 (stereo not shown) [compound 265] | – | E (E represents a maximal response of 40-60%) | F (F represents a maximal response of > 60%) | > 2.1 µM | > 2.1 µM | – | – |
| Cc1cnc(N2CCCCC2c2cccc(C(F)(F)F)c2)nc1Cl (stereo not shown) [compound 266] | – | D (D represents a maximal response of < 40%) | E (E represents a maximal response of 40-60%) | > 2.1 µM | > 2.1 µM | – | – |
| Cc1cnc(Cl)nc1N1CCCCC1c1cccc(F)n1 (stereo not shown) [compound 267] | – | E (E represents a maximal response of 40-60%) | D (D represents a maximal response of < 40%) | > 2.1 µM | > 2.1 µM | – | – |

| Structure (SMILES) | EC50 (mu opioid receptor (MOR) [1]; [3]) | cAMP Max. Resp. (mu opioid receptor (MOR) [1]) | β-arr Max. Resp. (mu opioid receptor (MOR) [2]) | EC50 (mu opioid receptor (MOR) [2]; [4]) | EC50 (mu opioid receptor (MOR) [1]; [5]) | EC50 (mu opioid receptor (MOR) [1]) | EC50 (mu opioid receptor (MOR) [2]; β-arr. EC50, β-arrestin recruitment) |
| --- | --- | --- | --- | --- | --- | --- | --- |
| Cc1cnc(N2CCCCC2c2cccc(F)n2)nc1Cl (stereo not shown) [compound 268] | – | F (F represents a maximal response of > 60%) | D (D represents a maximal response of < 40%) | > 2.1 µM | > 2.1 µM | – | – |
| Cc1ncc(F)c(N2CCCCC2c2cccc(C(F)(F)F)c2)n1 (stereo not shown) [compound 269] | – | D (D represents a maximal response of < 40%) | F (F represents a maximal response of > 60%) | > 2.1 µM | > 2.1 µM | – | – |
| Cc1ncc(F)c(N2CCCCC2c2cccc(F)n2)n1 (stereo not shown) [compound 270] | – | D (D represents a maximal response of < 40%) | D (D represents a maximal response of < 40%) | > 2.1 µM | > 2.1 µM | – | – |
| COc1ncc(F)c(N2CCCCC2c2cccc(C(F)(F)F)c2)n1 (stereo not shown) [compound 271] | – | E (E represents a maximal response of 40-60%) | F (F represents a maximal response of > 60%) | > 2.1 µM | 0.7 to 2.1 µM | – | – |
| COc1ncc(F)c(N2CCCCC2c2cccc(F)n2)n1 (stereo not shown) [compound 272] | – | F (F represents a maximal response of > 60%) | D (D represents a maximal response of < 40%) | > 2.1 µM | > 2.1 µM | – | – |
| Fc1cnc(Cl)nc1N1CCCCC1c1cncc(C(F)(F)F)n1 (stereo not shown) [compound 274] | – | D (D represents a maximal response of < 40%) | F (F represents a maximal response of > 60%) | > 2.1 µM | 0.7 to 2.1 µM | – | – |
| COc1cc(C2CCCCN2c2nc(Cl)ncc2F)ccn1 (stereo not shown) [compound 275] | – | D (D represents a maximal response of < 40%) | D (D represents a maximal response of < 40%) | > 2.1 µM | > 2.1 µM | – | – |
| Fc1cnc(Cl)nc1N1CCCCC1c1cccc(Cl)n1 (stereo not shown) [compound 276] | – | D (D represents a maximal response of < 40%) | E (E represents a maximal response of 40-60%) | – | – | 0.7 to 2.1 µM | > 2.1 µM |
| Fc1cnc(Cl)nc1N1CCCCC1c1cncc(Cl)n1 (stereo not shown) [compound 277] | – | D (D represents a maximal response of < 40%) | E (E represents a maximal response of 40-60%) | > 2.1 µM | > 2.1 µM | – | – |
| Fc1cnc(Cl)nc1N1CCCCC1c1cc(C(F)(F)F)ccn1 (stereo not shown) [compound 278] | – | F (F represents a maximal response of > 60%) | F (F represents a maximal response of > 60%) | > 2.1 µM | 0.7 to 2.1 µM | – | – |
| O=c1[nH]c2ccc(C3CCCCN3c3nc(Cl)ncc3F)cc2o1 (stereo not shown) [compound 279] | – | F (F represents a maximal response of > 60%) | D (D represents a maximal response of < 40%) | > 2.1 µM | > 2.1 µM | – | – |
| Fc1cnc(Cl)nc1N1CCCCC1c1cncc(Cl)c1 (stereo not shown) [compound 280] | – | E (E represents a maximal response of 40-60%) | F (F represents a maximal response of > 60%) | – | – | > 2.1 µM | – |
| Cc1ccc(C2CCCCN2c2nc(Cl)ncc2F)cc1Br (stereo not shown) [compound 281] | – | D (D represents a maximal response of < 40%) | F (F represents a maximal response of > 60%) | 0.7 to 2.1 µM | < 0.7 µM | – | – |
| Fc1cnc(Cl)nc1N1CCCCC1c1ccnc2ccccc12 (stereo not shown) [compound 283] | – | F (F represents a maximal response of > 60%) | D (D represents a maximal response of < 40%) | > 2.1 µM | > 2.1 µM | – | – |
| Fc1cnc(Cl)nc1N1CCCCC1c1cccc2nccn12 (stereo not shown) [compound 284] | – | E (E represents a maximal response of 40-60%) | D (D represents a maximal response of < 40%) | > 2.1 µM | > 2.1 µM | – | – |
| Fc1cnc(Cl)nc1N1CCCCC1c1cccc(Cl)c1 (stereo not shown) [compound 285] | – | E (E represents a maximal response of 40-60%) | F (F represents a maximal response of > 60%) | 0.7 to 2.1 µM | > 2.1 µM | – | – |
| Fc1cnc(Cl)nc1N1CCCCC1c1cccc2ccncc12 (stereo not shown) [compound 286] | – | D (D represents a maximal response of < 40%) | D (D represents a maximal response of < 40%) | > 2.1 µM | > 2.1 µM | – | – |
| Fc1cnc(Cl)nc1N1CCCCC1c1ccc(Br)c(C(F)(F)F)c1 (stereo not shown) [compound 287] | – | D (D represents a maximal response of < 40%) | F (F represents a maximal response of > 60%) | 0.7 to 2.1 µM | < 0.7 µM | – | – |
| COc1cc(C2CCCCN2c2nc(Cl)ncc2F)ccc1Br (stereo not shown) [compound 288] | – | E (E represents a maximal response of 40-60%) | F (F represents a maximal response of > 60%) | > 2.1 µM | > 2.1 µM | – | – |
